From patent US9359293B2, “Methods of treatment using modulators of SIRT2” (priority 2011, dated 2016)
Entries after “also recorded” stand apart in the source; their conditions may differ.

Tests used:
[1] = target: Sirt6 (Homo sapiens (Human), UniProt Q8N6T7); experiment: Sirtuin deacylase inhibition, HPLC assay (H3K9Myr peptide); format: biochemical; conditions: 1 μM sirtuin, 1 mM NAD, 30 min pre-incubation, 1 hour
Description: (§1) Distinct selectivity profiles were found for each of the inhibitors studied. Different concentrations of TA, TB, TH, or TM were pre-incubated with 1 μM of the sirtuin and 1 mM NAD in 20 mM Tris-HCl buffer (pH 8.0) with 1 mM dithiothreitol (DTT) at 37° C. for 30 minutes. Then 0.05 mM acyl peptides (H3K9Ac for Sirt1, Sirt2 and Sirt3; H3K9Su for Sirt5; H3K9Myr for Sirt6 and Sirt7) were added to initiate the reactions. The total reaction volume iwas […]. Then reactions were incubated at 37° C. for a certain amount of time (2 minutes for Sirt1, 10 minutes for Sirt2 and Sirt5, 30 minutes for Sirt3, and 1 hour for Sirt6 and Sirt7). The reactions were stopped by adding […] of an aqueous solution containing 200 mM HCl and 320 mM acetic acid. After centrifugation to remove precipitated proteins, the supernatant was analyzed by HPLC with a reverse phase C18 column (250×4.6 mm, 90 A, […], GraceVydac, Southborough, Mass.), with a linear gradient of 0% to 20% B for 10 minutes (1 mL/min). […] All reactions were done in duplicate.

[2] = target: Sirt7 (Homo sapiens (Human), UniProt Q9NRC8); experiment: as above; format: biochemical; conditions: 1 μM sirtuin, 1 mM NAD, 30 min pre-incubation, 1 hour
Sirt7, sequence (Q9NRC8 whole entry): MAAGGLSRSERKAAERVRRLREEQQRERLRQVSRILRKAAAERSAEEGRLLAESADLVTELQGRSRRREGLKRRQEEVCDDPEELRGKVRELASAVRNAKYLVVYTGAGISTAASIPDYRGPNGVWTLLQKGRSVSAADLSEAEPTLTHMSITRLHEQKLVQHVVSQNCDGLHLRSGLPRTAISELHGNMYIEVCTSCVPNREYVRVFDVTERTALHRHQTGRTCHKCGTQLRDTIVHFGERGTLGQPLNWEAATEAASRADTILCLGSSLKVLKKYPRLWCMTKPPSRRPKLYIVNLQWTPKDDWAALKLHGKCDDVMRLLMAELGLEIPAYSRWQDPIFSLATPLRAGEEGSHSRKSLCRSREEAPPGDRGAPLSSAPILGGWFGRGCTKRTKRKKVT
Description: as §1

[3] = target: Sirt2 (Homo sapiens (Human), UniProt Q8IXJ6); experiment: Sirtuin deacylase inhibition, HPLC assay (H3K9Ac peptide); format: biochemical; conditions: for IC50: 1 μM sirtuin, 1 mM NAD, 30 min pre-incubation, H3K9Ac, 10 minutes
Sirt2, sequence (Q8IXJ6 whole entry): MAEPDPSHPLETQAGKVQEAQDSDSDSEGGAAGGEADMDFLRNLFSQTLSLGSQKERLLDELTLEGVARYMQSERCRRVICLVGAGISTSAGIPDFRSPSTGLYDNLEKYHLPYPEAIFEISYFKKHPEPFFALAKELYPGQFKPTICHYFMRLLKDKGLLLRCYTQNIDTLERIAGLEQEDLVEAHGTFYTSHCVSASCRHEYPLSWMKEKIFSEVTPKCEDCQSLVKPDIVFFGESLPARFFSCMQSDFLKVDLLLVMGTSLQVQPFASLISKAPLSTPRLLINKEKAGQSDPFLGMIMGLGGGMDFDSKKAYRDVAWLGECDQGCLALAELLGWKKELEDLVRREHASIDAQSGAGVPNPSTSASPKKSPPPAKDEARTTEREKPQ
Description: as §1, with “Then” for “Distinct selectivity profiles were found for each of the inhibitors studied. Different concentrations of TA, TB, TH, or TM were pre-incubated with 1 μM of the sirtuin and 1 mM NAD in 20 mM Tris-HCl buffer (pH 8.0) with 1 mM dithiothreitol (DTT) at 37° C. for 30 minutes. Then”

[4] = target: Sirt1 (Homo sapiens (Human), UniProt Q96EB6); experiment: as above; format: biochemical; conditions: for IC50: 1 μM sirtuin, 1 mM NAD, 30 min pre-incubation, H3K9Ac, 2 minutes; for inhibition of Sirt1 (in words): summary of Table 1
Sirt1, sequence (Q96EB6 whole entry): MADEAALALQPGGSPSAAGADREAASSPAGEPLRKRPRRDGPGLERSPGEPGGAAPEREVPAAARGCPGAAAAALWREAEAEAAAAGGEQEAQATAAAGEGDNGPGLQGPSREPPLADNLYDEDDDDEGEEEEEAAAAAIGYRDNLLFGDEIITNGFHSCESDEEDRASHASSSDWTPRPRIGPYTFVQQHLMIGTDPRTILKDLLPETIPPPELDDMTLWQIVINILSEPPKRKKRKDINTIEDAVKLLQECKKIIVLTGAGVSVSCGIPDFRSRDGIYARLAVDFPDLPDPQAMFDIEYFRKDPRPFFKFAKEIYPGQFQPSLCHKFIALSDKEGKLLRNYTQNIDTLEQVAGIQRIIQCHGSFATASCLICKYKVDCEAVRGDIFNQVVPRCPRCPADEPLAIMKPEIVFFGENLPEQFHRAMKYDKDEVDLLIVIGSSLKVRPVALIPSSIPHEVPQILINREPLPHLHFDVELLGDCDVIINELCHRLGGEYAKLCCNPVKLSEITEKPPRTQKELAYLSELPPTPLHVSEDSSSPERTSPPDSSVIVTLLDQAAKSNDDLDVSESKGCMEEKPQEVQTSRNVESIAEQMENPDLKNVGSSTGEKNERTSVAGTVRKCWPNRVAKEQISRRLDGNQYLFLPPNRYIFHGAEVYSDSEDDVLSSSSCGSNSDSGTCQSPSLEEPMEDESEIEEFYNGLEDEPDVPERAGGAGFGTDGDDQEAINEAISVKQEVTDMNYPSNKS
Description: as §1, with “Then” for “Distinct selectivity profiles were found for each of the inhibitors studied. Different concentrations of TA, TB, TH, or TM were pre-incubated with 1 μM of the sirtuin and 1 mM NAD in 20 mM Tris-HCl buffer (pH 8.0) with 1 mM dithiothreitol (DTT) at 37° C. for 30 minutes. Then”

[5] = target: Sirt5 (Homo sapiens (Human), UniProt Q9NXA8); experiment: Sirtuin deacylase inhibition, HPLC assay (H3K9Su peptide); format: biochemical; conditions: 1 μM sirtuin, 1 mM NAD, 30 min pre-incubation, 10 minutes
Sirt5, sequence (Q9NXA8 37-310): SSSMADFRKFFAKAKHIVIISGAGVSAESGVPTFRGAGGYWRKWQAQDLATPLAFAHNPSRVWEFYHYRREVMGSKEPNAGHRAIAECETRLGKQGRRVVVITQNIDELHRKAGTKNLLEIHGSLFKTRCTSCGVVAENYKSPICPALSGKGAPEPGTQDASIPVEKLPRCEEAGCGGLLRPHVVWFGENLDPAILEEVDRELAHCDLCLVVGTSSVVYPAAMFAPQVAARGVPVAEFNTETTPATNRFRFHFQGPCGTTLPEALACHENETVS
Description: as §1

[6] = system: MCF10a normal cell line; experiment: Low serum survival assay (normal cell proliferation); format: cell-based, human; conditions: 25 μM, FIG. 3(B), compared with MCF7
[7] = system: triple negative breast cancer cell line MDA-MB-231; experiment: Soft agar assay (anchorage-independent growth); format: cell-based; conditions: 25 μM, FIGS. 4(A), 4(B)
Description: Next, the ability of these inhibiting compounds to inhibit cancer cell proliferation was tested. MCF-7 and MDA-MB-231 cells (ATCC) were both maintained in RPMI 1640 media (Invitrogen®) supplemented with 10% heat-inactivated fetal bovine serum (FBS). MCF-10A (ATCC) cells were maintained in Dulbecco's Modified Eagle Medium: Nutrient Mixture F-12 (DMEM/F12) (Invitrogen®) supplemented with 10% horse serum (Invitrogen®).
The 0.6% agarose type VII (Sigma), 10% FBS and 1% Penicillin-Streptomycin (Invitrogen®) were prepared in RPMI 1640 medium, and added to a six-well culture plate (2 mL/well). The plates were kept at […] for 20 minutes to allow the agarose to solidify. Plates were then incubated at 37° C. for 5 minutes before the addition of the 1 mL soft agar/cell solution prepared by mixing 0.3% agarose type VII, 10% FBS, 1% Penicillin-Streptomycin and ˜3000 cells in RPMI 1640 medium. Again, the plates were kept at 4° C. for 20 minutes to allow the agarose to solidify. After the plates were incubated at 37° C. for 7 days, 1 mL of RPMI 1640 medium with 0.3% agarose type VII, 10% FBS and 1% Penicillin-Streptomycin was added to the plates and the plates kept at 4° C. for 20 minutes to allow the agarose to solidify. After the plates were incubated at 37° C. for another 7 days, the colony formations were examined under a microscope. All the experiments were duplicated. […]

[8] = target: Sirt3 (Homo sapiens (Human), UniProt Q9NTG7); experiment: Sirtuin deacylase inhibition, HPLC assay (H3K9Ac peptide); format: biochemical; conditions: 1 μM sirtuin, 1 mM NAD, 30 min pre-incubation
Sirt3, sequence (Q9NTG7 whole entry): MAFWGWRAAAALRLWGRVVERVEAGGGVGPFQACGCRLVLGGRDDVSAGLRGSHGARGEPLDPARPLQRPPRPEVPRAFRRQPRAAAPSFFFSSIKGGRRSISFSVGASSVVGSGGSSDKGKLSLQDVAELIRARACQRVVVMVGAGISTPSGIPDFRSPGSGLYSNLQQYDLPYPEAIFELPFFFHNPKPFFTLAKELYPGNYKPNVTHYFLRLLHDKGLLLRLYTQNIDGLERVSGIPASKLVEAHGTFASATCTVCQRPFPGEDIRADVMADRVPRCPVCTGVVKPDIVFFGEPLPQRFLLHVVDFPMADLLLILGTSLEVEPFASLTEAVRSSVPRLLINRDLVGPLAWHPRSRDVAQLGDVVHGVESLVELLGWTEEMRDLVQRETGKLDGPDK
Description: as §1

Sirt6, sequence (Q8N6T7 whole entry): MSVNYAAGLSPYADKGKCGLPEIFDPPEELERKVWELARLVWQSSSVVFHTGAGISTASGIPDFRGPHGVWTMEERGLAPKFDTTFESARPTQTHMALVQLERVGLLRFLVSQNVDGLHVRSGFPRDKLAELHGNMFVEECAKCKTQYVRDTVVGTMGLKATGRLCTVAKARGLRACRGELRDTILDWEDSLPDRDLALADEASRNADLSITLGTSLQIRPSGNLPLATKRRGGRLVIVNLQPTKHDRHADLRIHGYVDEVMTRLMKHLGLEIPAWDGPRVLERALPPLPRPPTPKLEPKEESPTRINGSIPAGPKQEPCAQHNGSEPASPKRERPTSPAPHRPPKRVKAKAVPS

| Structure (SMILES) | IC50 [1] [µM] | IC50 [2] [µM] | IC50 [3] [µM] | IC50 [4] [µM] | inhibition of Sirt1 (in words) [4] | IC50 [5] [µM] | effect on growth of MCF10a normal non-tumorigenic cells [6] | inhibition of anchorage-independent growth of MDA-MB-231 [7] | inhibition of Sirt2 (in words) ([3]; summary of Table 1) | IC50 [8] [µM] |
| --- | --- | --- | --- | --- | --- | --- | --- | --- | --- | --- |
| CCCC(=S)NCCCCC(NC(=O)OCc1ccccc1)C(=O)Nc1ccccc1 (stereo not shown) [TB] | > 205 | > 205 | 3 | 2.4 | efficiently inhibit | > 205 | – | – | – | – |
| CCCCCCCCCCCCCC(=S)NCCCCC(NC(=O)OCc1ccccc1)C(=O)Nc1ccccc1 (stereo not shown) [TM] | > 205 | > 205 | – | – | – | > 205 | much less than that in the MCF7 cancer cell line; also recorded: can still grow | can inhibit the anchorage-independent growth | – | – |
| CCCCCCC(=S)NCCCCC(NC(=O)OCc1ccccc1)C(=O)Nc1ccccc1 (stereo not shown) [TH] | > 205 | > 205 | 0.12 | 0.31 | efficiently inhibit | > 205 | much less than that in the MCF7 cancer cell line; also recorded: can still grow | – | efficiently inhibit | – |
| CC(=S)NCCCCC(NC(=O)OCc1ccccc1)C(=O)Nc1ccccc1 (stereo not shown) [TA] | > 205 | > 205 | 105 | 30 | – | > 205 | – | – | – | > 205 |
